# Results: paper PMC8665103 (Journal of medicinal chemistry, 2021)
# Where two headings read alike, the source gives them in different places.
# Key:
# [1] = type: physicochemical; conditions: for CAC (critical aggregation concentration) / Colloid radius ±SD: DLS; for CAC (critical aggregation concentration): 50 mM KPi pH 7.0, 1% DMSO
# 3CL-Pro = 3CL-Pro (Severe acute respiratory syndrome coronavirus 2, UniProt P0DTD1); assay: 3CL-Pro kinetics inhibition assay in the presence of 0.05% Tween-20; type: biochemical, SARS-CoV-2; conditions: 0.05% Tween-20 versus literature IC50
# MDH = target: T1, MDH (Sus scrofa, UniProt P00346); assay: Colloid centrifugation followed by MDH inhibition of supernatant; type: biochemical, porcine; conditions: 14,000 rpm, 1 h, 4 °C; supernatant tested
# T1 sequence (P00346 25-338): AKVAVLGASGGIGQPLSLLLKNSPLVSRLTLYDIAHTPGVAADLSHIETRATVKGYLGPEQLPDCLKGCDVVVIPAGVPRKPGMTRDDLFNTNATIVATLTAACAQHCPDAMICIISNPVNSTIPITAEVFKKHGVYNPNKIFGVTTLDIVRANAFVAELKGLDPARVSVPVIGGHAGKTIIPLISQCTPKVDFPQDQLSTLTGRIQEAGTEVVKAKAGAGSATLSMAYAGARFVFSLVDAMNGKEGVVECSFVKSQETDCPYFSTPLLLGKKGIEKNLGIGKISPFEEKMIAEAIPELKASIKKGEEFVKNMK
# [2] = target: T2, MDH (malate dehydrogenase, from porcine heart) (Sus scrofa, UniProt P00346); assay: MDH inhibition counter screen with or without 0.01% Triton X-100; type: biochemical; conditions: for Effect of 0.01% Triton X-100 detergent on MDH inhibition/activity: addition of 0.01% Triton X-100; for Hill slope of MDH inhibition: in the absence of detergent
# T2 sequence (P00346 25-338): T1 sequence (P00346 25-338)
# AmpC β-lactamase = AmpC β-lactamase (Escherichia coli, UniProt P00811); assay: AmpC β-lactamase counter screen with or without 0.01% Triton X-100; type: biochemical
# Chain of AmpC β-lactamase (P00811 20-377): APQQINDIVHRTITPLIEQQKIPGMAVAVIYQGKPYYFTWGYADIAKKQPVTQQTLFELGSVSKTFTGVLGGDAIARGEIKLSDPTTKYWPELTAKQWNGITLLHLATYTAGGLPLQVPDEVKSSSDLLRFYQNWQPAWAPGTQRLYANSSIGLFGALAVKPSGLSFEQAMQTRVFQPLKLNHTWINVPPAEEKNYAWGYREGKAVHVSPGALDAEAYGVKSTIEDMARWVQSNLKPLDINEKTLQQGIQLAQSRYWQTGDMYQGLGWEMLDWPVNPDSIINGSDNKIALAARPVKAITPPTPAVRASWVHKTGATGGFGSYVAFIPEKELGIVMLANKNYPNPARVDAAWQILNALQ
molecule,measurement,setting,value
O=C(O)c1ccc(N2C(=O)/C(=C\c3ccc(-c4ccc([N+](=O)[O-])cc4)o3)C=C2c2ccccc2)cc1 [4E1RCat],CAC (critical aggregation concentration),[1]; literature hits,6.6 µM
same,Colloid radius ±SD,[1]; literature hits,102 ± 8 nm
same,Reduction of 3CL-Pro potency in presence of detergent versus literature value,3CL-Pro,fivefold
COc1ccc(-c2ccc3cc(C(=O)O)ccc3c2)cc1C12CC3CC(CC(C3)C1)C2 [Adapalene],Colloid radius ±SD,[1]; drugs from repurposing library,422 ± 65 nm
Cc1c(C)c2c(c(C)c1O)CCC(C)(CCCC(C)CCCC(C)CCCC(C)C)O2 (stereo not drawn) [Alpha-Tochopherol],Colloid radius ±SD,[1]; drugs from repurposing library,466 ± 5.6 nm
O=C1c2c(O)cccc2Cc2cccc(O)c21 [Anthralin],Colloid radius ±SD,[1]; literature hits,1014 ± 53 nm
O=C1CCc2ccc(OCCCCN3CCN(c4cccc(Cl)c4Cl)CC3)cc2N1 [Aripiprazole],Colloid radius ±SD,[1]; literature hits,222 ± 5. nm
Cc1c(-c2ccc(O)cc2)n(Cc2ccc(OCCN3CCCCCC3)cc2)c2ccc(O)cc12 [Bazedoxifene],Colloid radius ±SD,[1]; drugs from repurposing library,2822 ± 814 nm
c1ccc(-c2ccc(C(c3ccccc3)n3ccnc3)cc2)cc1 (stereo not drawn) [Bifonazole],Colloid radius ±SD,[1]; drugs from repurposing library,184 ± 80 nm
CC(C)(C)[C@H]1CC[C@H](CC2=C(O)C(=O)c3ccccc3C2=O)CC1 [Buparvaquone],Colloid radius ±SD,[1]; drugs from repurposing library,186 ± 15 nm
C[C@@H](NCCCc1cccc(C(F)(F)F)c1)c1cccc2ccccc12 [Cinacalcet],Colloid radius ±SD,[1]; literature hits,77 ± 4 nm
Oc1c(I)cc(Cl)c2cccnc12 [Clioquinol],Colloid radius ±SD,[1]; literature hits,1818 ± 177 nm
Clc1ccccc1C(c1ccccc1)(c1ccccc1)n1ccnc1 [Clotrimazole],Colloid radius ±SD,[1]; literature hits,283 ± 15 nm
COc1c2ccc(-c3ccccc3)oc-2cc(=O)c1C [Dracorhodin],Colloid radius ±SD,[1]; drugs from repurposing library,101 ± 22 nm
Cc1cc(O)c2c(c1)C(=O)c1cc(O)cc(O)c1C2=O [Emodin],Colloid radius ±SD,[1]; literature hits,58 ± 17 nm
Cc1cc(-c2ccc(/N=N/c3ccc4c(S(=O)(=O)[O-])cc(S(=O)(=O)[O-])c(N)c4c3O)c(C)c2)ccc1/N=N/c1ccc2c(S(=O)(=O)[O-])cc(S(=O)(=O)[O-])c(N)c2c1O.[Na+].[Na+].[Na+].[Na+] [Evans Blue],Particles by DLS,[1],did not show particles by DLS
same,MDH enzyme activity after centrifugation of compound,MDH,enzyme activity was restored after centrifugation
Cc1cc2c(C(C)C)c(O)c(O)c(C=O)c2c(O)c1-c1c(C)cc2c(C(C)C)c(O)c(O)c(C=O)c2c1O [Gossypol],Colloid radius ±SD,[1]; literature hits,70 ± 6 nm
O=C1C=C2CC3(O)COc4c(ccc(O)c4O)C3=C2C=C1O (stereo not drawn) [Hematein],Colloid radius ±SD,[1]; literature hits,64 ± 1 nm
Cc1cc(O)c2c(=O)c3c(O)cc(O)c4c5c(O)cc(O)c6c(=O)c7c(O)cc(C)c8c1c2c(c34)c(c78)c65 [Hypericin],Colloid radius ±SD,[1]; literature hits,143 ± 6 nm
COC(=O)C1=C(C)NC(C)=C(C(=O)OC(C)(C)CN(C)CCC(c2ccccc2)c2ccccc2)C1c1cccc([N+](=O)[O-])c1 (stereo not drawn) [Lercanidipine],Effect of 0.01% Triton X-100 detergent on MDH inhibition/activity,[2],MDH activity is restored
same,Hill slope of MDH inhibition,[2],2.9
same,Colloid radius ±SD,[1]; literature hits,853 ± 147 nm
same,Increase in DLS scattering intensity (Cnts/sec) on particle formation,[1]; aqueous buffer,10 fold
COC(=O)C1=C(C)NC(C)=C(C(=O)OCCN2CCN(C(c3ccccc3)c3ccccc3)CC2)C1c1cccc([N+](=O)[O-])c1 (stereo not drawn) [Manidipine],Colloid radius ±SD,[1]; literature hits,929 ± 75 nm
O=c1c(O)c(-c2cc(O)c(O)c(O)c2)oc2cc(O)cc(O)c12 [Myricetin],Colloid radius ±SD,[1]; literature hits,100 ± 4 nm
CC(C)=CC[C@@H](O)C1=CC(=O)c2c(O)ccc(O)c2C1=O [Shikonin],Hill slope of MDH inhibition,[2],1.3–1.4
same,Colloid radius ±SD,[1]; literature hits,169 ± 9 nm
Brc1c(Br)c(Br)c2[nH]nnc2c1Br [TBB],Particles by DLS,[1],did not show particles by DLS
same,MDH enzyme activity after centrifugation of compound,MDH,enzyme activity was restored after centrifugation
C/C(=C\c1ccc(C(=O)O)cc1)c1ccc2c(c1)C(C)(C)CCC2(C)C [TTNPB],Colloid radius ±SD,[1]; literature hits,72 ± 3 nm
O=C(O)c1cccc(CN2C(=O)/C(=C(\c3ccccc3)c3ccc(Cl)cc3)c3ccccc32)c1 [YLF-466D],Colloid radius ±SD,[1]; literature hits,40 ± 0.4 nm
Hemin,Hill slope of MDH inhibition,[2],1.3–1.4
same,CAC (critical aggregation concentration),[1]; literature hits,13 µM
same,Colloid radius ±SD,[1]; literature hits,84 ± 0.9 nm
same,Reduction of 3CL-Pro potency in presence of detergent versus literature value,3CL-Pro,2.6 fold
same,AmpC enzyme activity on addition of 0.01% (v/v) Triton X-100,AmpC β-lactamase; at 25 μM hemin,fully restored enzyme activity
same,IC50,"AmpC β-lactamase; read-out: AmpC IC50, no detergent",23 µM
tannic acid,Effect of 0.01% Triton X-100 detergent on MDH inhibition/activity,[2],cannot be reversed by detergent
